Laboratory results: ChEMBL document CHEMBL2429743, “Synthesis and antitumor properties of novel curcumin analogs” (Med Chem Res, 2013)
Calls of active or inactive are those of the source. The calls are words filed in the database; no cut-off is given here.

Key:
Bcap37 [1] = assay: Cytotoxicity against human Bcap37 cells after 72 hrs by MTT assay; details: Bcap37, 72 h
MGC-803 [2] = assay: cells; details: Homo sapiens, MGC-803, 72 h
Description: Cytotoxicity against human MGC803 cells after 72 hrs by MTT assay

PC-3 [3] = assay: cells; details: Homo sapiens, PC-3, 72 h
Description: Cytotoxicity against human PC3 cells after 72 hrs by MTT assay

MGC-803 [4] = assay: Induction of apoptosis in human MGC803 cells assessed as early and late apoptosis ratio at 1 to 10 uM by annxinV-FITC/propidium iodide staining-based flow cytometry; type: functional, cell-based; details: TDE = time-dependent effect
MGC-803 [5] = assay: Induction of apoptosis in human MGC803 cells assessed as early and late apoptosis ratio at 10 uM after 24 hrs by annxinV-FITC/propidium iodide staining-based flow cytometry; type: functional
MGC-803 [6] = assay: Induction of apoptosis in human MGC803 cells assessed as early and late apoptosis ratio at 5 uM after 24 hrs by annxinV-FITC/propidium iodide staining-based flow cytometry; type: functional
MGC-803 [7] = assay: Induction of apoptosis in human MGC803 cells assessed as early and late apoptosis ratio at 1 uM after 24 hrs by annxinV-FITC/propidium iodide staining-based flow cytometry; type: functional
MGC-803 [8] = assay: Induction of apoptosis in human MGC803 cells assessed as early and late apoptosis ratio at 10 uM after 12 hrs by annxinV-FITC/propidium iodide staining-based flow cytometry; type: functional
MGC-803 [9] = assay: Induction of apoptosis in human MGC803 cells assessed as early and late apoptosis ratio at 5 uM after 12 hrs by annxinV-FITC/propidium iodide staining-based flow cytometry; type: functional
MGC-803 [10] = assay: Induction of apoptosis in human MGC803 cells assessed as early and late apoptosis ratio at 1 uM after 12 hrs by annxinV-FITC/propidium iodide staining-based flow cytometry; type: functional
MGC-803 [11] = assay: Induction of apoptosis in human MGC803 cells assessed as early and late apoptosis ratio at 10 uM after 6 hrs by annxinV-FITC/propidium iodide staining-based flow cytometry; type: functional
MGC-803 [12] = assay: Induction of apoptosis in human MGC803 cells assessed as early and late apoptosis ratio at 5 uM after 6 hrs by annxinV-FITC/propidium iodide staining-based flow cytometry; type: functional
MGC-803 [13] = assay: Induction of apoptosis in human MGC803 cells assessed as early and late apoptosis ratio at 1 uM after 6 hrs by annxinV-FITC/propidium iodide staining-based flow cytometry; type: functional
MGC-803 [14] = assay: Induction of apoptosis in human MGC803 cells assessed as DNA fragmentation at 5 uM after 12 hrs by EB staining-based agarose gel electrophoresis relative to control; type: functional, cell-based
MGC-803 [15] = assay: Induction of apoptosis in human MGC803 cells assessed as chromatin condensation at 5 uM after 12 hrs by Hoechst 33258 staining-based fluorescence microscopic analysis; type: functional, cell-based
MGC-803 [16] = assay: Induction of apoptosis in human MGC803 cells assessed as pyknotic nuclei at 5 uM after 12 hrs by Hoechst 33258 staining-based fluorescence microscopic analysis; type: functional, cell-based
Bcap37 [17] = assay: Induction of apoptosis in human Bcap37 cells assessed as chromatin condensation at 5 uM after 12 hrs by Hoechst 33258 staining-based fluorescence microscopic analysis; type: functional, cell-based
Bcap37 [18] = assay: Induction of apoptosis in human Bcap37 cells assessed as pyknotic nuclei at 5 uM after 12 hrs by Hoechst 33258 staining-based fluorescence microscopic analysis; type: functional, cell-based
PC-3 [19] = assay: Induction of apoptosis in human PC3 cells assessed as chromatin condensation at 5 uM after 12 hrs by Hoechst 33258 staining-based fluorescence microscopic analysis; type: functional, cell-based
PC-3 [20] = assay: Induction of apoptosis in human PC3 cells assessed as pyknotic nuclei at 5 uM after 12 hrs by Hoechst 33258 staining-based fluorescence microscopic analysis; type: functional, cell-based
MGC-803 [21] = assay: Induction of apoptosis in human MGC803 cells assessed as early and late apoptic cells at 5 uM after 12 hrs by AO/EB staining-based fluorescence microscopic analysis; type: functional, cell-based
MGC-803 [22] = assay: Induction of apoptosis in human MGC803 cells assessed as necrotic cells at 5 uM after 12 hrs by AO/EB staining-based fluorescence microscopic analysis; type: functional, cell-based
Bcap37 [23] = assay: Induction of apoptosis in human Bcap37 cells assessed as necrotic cells at 5 uM after 12 hrs by AO/EB staining-based fluorescence microscopic analysis; type: functional, cell-based
Bcap37 [24] = assay: Induction of apoptosis in human Bcap37 cells assessed as early and late apoptic cells at 5 uM after 12 hrs by AO/EB staining-based fluorescence microscopic analysis; type: functional, cell-based
PC-3 [25] = assay: Induction of apoptosis in human PC3 cells assessed as necrotic cells at 5 uM after 12 hrs by AO/EB staining-based fluorescence microscopic analysis; type: functional, cell-based
[26] = Selectivity index, ratio of IC50 for mouse NIH3T3 cells to IC50 for human MGC803 cells; type: functional
PC-3 [27] = assay: Induction of apoptosis in human PC3 cells assessed as early and late apoptic cells at 5 uM after 12 hrs by AO/EB staining-based fluorescence microscopic analysis; type: functional, cell-based
[28] = Selectivity index, ratio of IC50 for mouse NIH3T3 cells to IC50 for human Bcap37 cells; type: functional
[29] = Selectivity index, ratio of IC50 for mouse NIH3T3 cells to IC50 for human PC3 cells; type: functional
MGC-803 [30] = assay: Induction of apoptosis in human MGC803 cells assessed as DNA fragmentation at 10 uM after 12 hrs by EB staining-based agarose gel electrophoresis relative to control; type: functional, cell-based
MGC-803 [31] = assay: Induction of apoptosis in human MGC803 cells assessed as chromatin condensation at 10 uM after 12 hrs by Hoechst 33258 staining-based fluorescence microscopic analysis; type: functional, cell-based
MGC-803 [32] = assay: Induction of apoptosis in human MGC803 cells assessed as smaller nuclei at 10 uM after 12 hrs by Hoechst 33258 staining-based fluorescence microscopic analysis; type: functional, cell-based
Bcap37 [33] = assay: Induction of apoptosis in human Bcap37 cells assessed as chromatin condensation at 10 uM after 12 hrs by Hoechst 33258 staining-based fluorescence microscopic analysis; type: functional, cell-based
Bcap37 [34] = assay: Induction of apoptosis in human Bcap37 cells assessed as smaller nuclei at 10 uM after 12 hrs by Hoechst 33258 staining-based fluorescence microscopic analysis; type: functional, cell-based
PC-3 [35] = assay: Induction of apoptosis in human PC3 cells assessed as chromatin condensation at 10 uM after 12 hrs by Hoechst 33258 staining-based fluorescence microscopic analysis; type: functional, cell-based
PC-3 [36] = assay: Induction of apoptosis in human PC3 cells assessed as smaller nuclei at 10 uM after 12 hrs by Hoechst 33258 staining-based fluorescence microscopic analysis; type: functional, cell-based

Cc1cccc2c(Oc3ccc(/C=C/C(=O)/C=C/c4cc([N+](=O)[O-])ccc4Cl)cc3)ncnc12
IC50 (Bcap37 [1]): 7.89 µM | IC50 (MGC-803 [2]): 1.86 µM | IC50 (PC-3 [3]): 2.79 µM

O=C(/C=C/c1ccc(Oc2ncnc3ccccc23)cc1)/C=C/c1ccc(Cl)cc1Cl
IC50 (Bcap37 [1]): 10.8 µM | IC50 (MGC-803 [2]): 2.77 µM | IC50 (PC-3 [3]): 4.57 µM

O=C(/C=C/c1ccc(Oc2ncnc3ccccc23)cc1)/C=C/c1cc([N+](=O)[O-])ccc1Cl
Activity (MGC-803 [4]): tde | Activity (MGC-803 [5]): 27.1% | Activity (MGC-803 [6]): 8.9% | Activity (MGC-803 [7]): 5.3% | Activity (MGC-803 [8]): 10.5% | Activity (MGC-803 [9]): 6.2% | Activity (MGC-803 [10]): 2.8% | Activity (MGC-803 [11]): 6.4% | Activity (MGC-803 [12]): 4.1% | Activity (MGC-803 [13]): 2.4% | Activity (MGC-803 [14]): Active | Activity (MGC-803 [15]): Active | Activity (MGC-803 [16]): Active | Activity (Bcap37 [17]): Active | Activity (Bcap37 [18]): Active | Activity (PC-3 [19]): Active | Activity (PC-3 [20]): Active | Activity (MGC-803 [21]): Active | Activity (MGC-803 [22]): Active | Activity (Bcap37 [23]): Active | Activity (Bcap37 [24]): Active | Activity (PC-3 [25]): Active | Ratio IC50 [26]: >8 | Activity (PC-3 [27]): Active | Ratio IC50 [28]: 5.72 | Ratio IC50 [29]: >8 | IC50 (Bcap37 [1]): 3.9 µM | IC50 (MGC-803 [2]): 0.86 µM | IC50 (PC-3 [3]): 1.34 µM

O=C(/C=C/c1ccc(Cl)cc1)/C=C/c1ccc(Oc2ncnc3ccccc23)cc1
IC50 (Bcap37 [1]): 11.3 µM | IC50 (MGC-803 [2]): 4.84 µM | IC50 (PC-3 [3]): 7.35 µM

COc1ccc(OC)c(/C=C/C(=O)/C=C/c2ccc(Oc3ncnc4c(C)cccc34)cc2)c1
IC50 (Bcap37 [1]): 8.17 µM | IC50 (MGC-803 [2]): 2.32 µM | IC50 (PC-3 [3]): 4.71 µM

Cc1nn(C)c(Cl)c1/C=C/C(=O)/C=C/c1ccc(Oc2ncnc3ccccc23)cc1
IC50 (Bcap37 [1]): 18.9 µM | IC50 (MGC-803 [2]): 9.31 µM | IC50 (PC-3 [3]): 11.5 µM

Cc1nn(C)c(Cl)c1/C=C/C(=O)/C=C/c1ccc(Oc2ncnc3c(C)cccc23)cc1
IC50 (Bcap37 [1]): 21.3 µM | IC50 (MGC-803 [2]): 11.6 µM | IC50 (PC-3 [3]): 16.4 µM

COc1ccccc1/C=C/C(=O)/C=C/c1ccc(Oc2ncnc3ccccc23)cc1
Ratio IC50 [26]: 6.13 | Ratio IC50 [28]: <2 | Ratio IC50 [29]: 3.4 | IC50 (Bcap37 [1]): 7.82 µM | IC50 (MGC-803 [2]): 2.03 µM | IC50 (PC-3 [3]): 3.66 µM

COc1cccc2c1C(=O)c1c(O)c3c(c(O)c1C2=O)C[C@@](O)(C(=O)CO)C[C@@H]3O[C@H]1C[C@H](N)[C@H](O)[C@H](C)O1 [DOXORUBICIN]
Ratio IC50 [26]: <2 | Ratio IC50 [28]: <2 | Ratio IC50 [29]: <2 | IC50 (Bcap37 [1]): 1.9 µM | IC50 (MGC-803 [2]): 0.74 µM | IC50 (PC-3 [3]): 1.01 µM

CC(=O)/C=C/c1ccc(Oc2ncnc3ccccc23)cc1
IC50 (Bcap37 [1]): 28.9 µM | IC50 (MGC-803 [2]): 18.4 µM | IC50 (PC-3 [3]): 21.3 µM

COc1ccccc1/C=C/C(=O)/C=C/c1ccc(Oc2ncnc3c(C)cccc23)cc1
IC50 (Bcap37 [1]): 9.26 µM | IC50 (MGC-803 [2]): 3.76 µM | IC50 (PC-3 [3]): 5.17 µM

CC[C@@]1(O)C(=O)OCc2c1cc1n(c2=O)Cc2cc3cc(O)ccc3nc2-1 [HYDROXYCAMPTOTHECIN]
Activity (MGC-803 [5]): 24.5% | Activity (MGC-803 [6]): 7.6% | Activity (MGC-803 [7]): 4.7% | Activity (MGC-803 [8]): 8.6% | Activity (MGC-803 [9]): 5.8% | Activity (MGC-803 [10]): 2% | Activity (MGC-803 [11]): 3% | Activity (MGC-803 [12]): 1.8% | Activity (MGC-803 [13]): 1.2% | Activity (MGC-803 [30]): Active | Activity (MGC-803 [31]): Active | Activity (MGC-803 [32]): Active | Activity (Bcap37 [33]): Active | Activity (Bcap37 [34]): Active | Activity (PC-3 [35]): Active | Activity (PC-3 [36]): Active

CC(=O)/C=C/c1ccc(Oc2ncnc3c(C)cccc23)cc1
IC50 (Bcap37 [1]): 30.3 µM | IC50 (MGC-803 [2]): 19.9 µM | IC50 (PC-3 [3]): 25.8 µM

Cc1cccc2c(Oc3ccc(/C=C/C(=O)/C=C/c4ccc(F)cc4)cc3)ncnc12
IC50 (Bcap37 [1]): 9.25 µM | IC50 (MGC-803 [2]): 4.36 µM | IC50 (PC-3 [3]): 7.36 µM

O=C(/C=C/c1ccc(F)cc1)/C=C/c1ccc(Oc2ncnc3ccccc23)cc1
IC50 (Bcap37 [1]): 8.53 µM | IC50 (MGC-803 [2]): 3.84 µM | IC50 (PC-3 [3]): 5.62 µM

Cc1cccc2c(Oc3ccc(/C=C/C(=O)/C=C/c4ccc(Cl)cc4)cc3)ncnc12
IC50 (Bcap37 [1]): 12.3 µM | IC50 (MGC-803 [2]): 8.1 µM | IC50 (PC-3 [3]): 8.79 µM

Cc1cccc2c(Oc3ccc(/C=C/C(=O)/C=C/c4ccc(Cl)cc4Cl)cc3)ncnc12
IC50 (Bcap37 [1]): 32.8 µM | IC50 (MGC-803 [2]): 5.13 µM | IC50 (PC-3 [3]): 15.2 µM

COc1ccc(OC)c(/C=C/C(=O)/C=C/c2ccc(Oc3ncnc4ccccc34)cc2)c1
Ratio IC50 [26]: 6.57 | Ratio IC50 [28]: <2 | Ratio IC50 [29]: 4.46 | IC50 (Bcap37 [1]): 7.81 µM | IC50 (MGC-803 [2]): 2.01 µM | IC50 (PC-3 [3]): 2.96 µM
